# Active and inactive are the calls of the source. The rule behind the calls is not given here.
# Experiments:
# Endothelial lipase [1] = target: T1, Endothelial lipase (Homo sapiens, UniProt Q9Y5X9); assay: Inhibition of endothelial lipase in human serum; format: cell-free
# T1 sequence (Q9Y5X9 whole entry): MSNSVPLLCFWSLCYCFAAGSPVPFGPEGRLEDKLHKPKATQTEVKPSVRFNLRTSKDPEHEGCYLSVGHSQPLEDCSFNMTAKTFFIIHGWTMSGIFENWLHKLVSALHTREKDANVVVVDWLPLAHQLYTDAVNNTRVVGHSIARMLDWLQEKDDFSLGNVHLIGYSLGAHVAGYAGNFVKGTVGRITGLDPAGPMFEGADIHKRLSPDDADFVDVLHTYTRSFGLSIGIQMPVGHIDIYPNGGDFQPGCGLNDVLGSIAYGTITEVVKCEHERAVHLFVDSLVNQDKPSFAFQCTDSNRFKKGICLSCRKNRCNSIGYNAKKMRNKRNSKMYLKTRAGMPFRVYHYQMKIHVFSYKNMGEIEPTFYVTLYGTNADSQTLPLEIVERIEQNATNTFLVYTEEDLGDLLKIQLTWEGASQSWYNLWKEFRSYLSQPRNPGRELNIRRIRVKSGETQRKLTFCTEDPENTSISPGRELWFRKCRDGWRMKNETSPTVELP
# [2] = target: T2, Hepatic triacylglycerol lipase (Homo sapiens, UniProt P11150); assay: Inhibition of hepatic lipase (unknown origin)
# T2 sequence (P11150 whole entry): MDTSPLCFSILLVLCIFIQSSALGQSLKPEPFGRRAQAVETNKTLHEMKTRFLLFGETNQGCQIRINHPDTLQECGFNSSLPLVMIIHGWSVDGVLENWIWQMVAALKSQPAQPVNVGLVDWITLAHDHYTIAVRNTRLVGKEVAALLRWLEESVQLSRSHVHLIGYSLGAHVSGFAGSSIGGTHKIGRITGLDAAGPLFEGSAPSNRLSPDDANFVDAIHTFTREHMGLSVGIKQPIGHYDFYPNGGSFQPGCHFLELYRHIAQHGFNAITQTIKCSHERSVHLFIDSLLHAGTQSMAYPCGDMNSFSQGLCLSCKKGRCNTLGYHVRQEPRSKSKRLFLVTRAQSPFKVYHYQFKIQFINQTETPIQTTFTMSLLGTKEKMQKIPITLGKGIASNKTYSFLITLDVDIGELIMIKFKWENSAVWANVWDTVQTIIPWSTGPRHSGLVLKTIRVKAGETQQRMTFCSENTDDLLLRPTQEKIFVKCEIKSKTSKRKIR
# Endothelial lipase [3] = target: T1, Endothelial lipase; assay: Inhibition of endothelial lipase (unknown origin)
# Cytochrome P450 2C9 = Cytochrome P450 2C9 (Homo sapiens, UniProt P11712); assay: Inhibition of CYP2C9 (unknown origin); format: ADME
# Cytochrome P450 2C19 = Cytochrome P450 2C19 (Homo sapiens, UniProt P33261); assay: Inhibition of CYP2C19 (unknown origin); format: ADME
# Cytochrome P450 1A2 = target: T3, Cytochrome P450 1A2 (Homo sapiens, UniProt P05177); assay: Inhibition of CYP1A2 (unknown origin); format: ADME
# T3 sequence (P05177 whole entry): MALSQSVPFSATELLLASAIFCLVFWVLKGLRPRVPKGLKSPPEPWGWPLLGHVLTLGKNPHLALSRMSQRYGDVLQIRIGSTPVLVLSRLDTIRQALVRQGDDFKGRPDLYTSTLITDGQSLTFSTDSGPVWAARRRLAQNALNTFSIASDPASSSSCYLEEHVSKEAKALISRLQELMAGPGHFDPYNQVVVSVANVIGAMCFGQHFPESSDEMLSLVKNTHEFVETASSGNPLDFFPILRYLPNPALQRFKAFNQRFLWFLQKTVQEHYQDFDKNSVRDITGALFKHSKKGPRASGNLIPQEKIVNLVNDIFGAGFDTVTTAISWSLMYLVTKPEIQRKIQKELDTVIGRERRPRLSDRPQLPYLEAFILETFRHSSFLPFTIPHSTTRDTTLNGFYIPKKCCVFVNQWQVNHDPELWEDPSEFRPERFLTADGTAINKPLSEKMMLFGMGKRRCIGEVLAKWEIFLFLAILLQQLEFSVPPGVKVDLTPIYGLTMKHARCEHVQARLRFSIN
# Cytochrome P450 2D6 = Cytochrome P450 2D6 (Homo sapiens, UniProt P10635); assay: Inhibition of CYP2D6 (unknown origin); format: ADME
# Cytochrome P450 3A4 = Cytochrome P450 3A4 (Homo sapiens, UniProt P08684); assay: Inhibition of CYP3A4 (unknown origin); format: ADME
# [4] = Metabolic stability in human liver microsomes assessed as parent compound remaining at 0.5 uM preincubated with compound followed by NADPH addition and measured after 10 mins; format: ADME, Microsome; conditions: read-out: Stability
# [5] = Metabolic stability in mouse liver microsomes assessed as parent compound remaining at 0.5 uM preincubated with compound followed by NADPH addition and measured after 10 mins; format: ADME, Microsome; conditions: read-out: Stability
# [6] = Permeability of compound at pH 7.4 by PAMPA; format: ADME; conditions: read-out: permeability
# [7] = Permeability of compound at pH 5.0 by PAMPA; format: ADME; conditions: read-out: permeability
# [8] = Permeability across apical to basolateral side in human Caco2 cells; format: ADME, cell-based; conditions: Caco-2, read-out: permeability
# [9] = Permeability across basolateral to apical side in human Caco2 cells; format: ADME, cell-based; conditions: Caco-2, read-out: permeability
# Mus musculus [10] = assay: Antiatherosclerotic in C57BL/6 mouse assessed as change in phospholipid level in plasma at 50 mg/kg, ip qd administrated for 2 days and measured 6 hrs post last dose by FPLC analysis; format: functional, organism-based
# [11] = target: T4, Endothelial lipase (Homo sapiens) (UniProt Q9Y5X9); assay: Reversible inhibition of endothelial lipase (unknown origin) assessed as recovery of enzyme activity measured after 24 hrs by dialysis based assay relative to control; design: scale not given: the % may be the effect or the level left
# T4 sequence (whole entry): T1 sequence (Q9Y5X9 whole entry)
# [12] = Cmax in BALB/c mouse at 10 mg/kg, po; format: ADME, organism-based; design: dose 10 mg/kg, route oral; conditions: in vivo
# [13] = Tmax in BALB/c mouse at 10 mg/kg, po; format: ADME, organism-based; conditions: in vivo
# [14] = AUC (0 to 24 hrs) in BALB/c mouse at 10 mg/kg, po; format: ADME, organism-based; design: time < 24 hr, dose 10 mg/kg, route oral; conditions: in vivo
# [15] = Half life in BALB/c mouse at 10 mg/kg, po; format: ADME, organism-based; conditions: in vivo
# [16] = Plasma concentration in BALB/c mouse at 10 mg/kg, po measured at 24 hrs post dose; format: ADME, organism-based
# [17] = Cmax in BALB/c mouse at 50 mg/kg, ip; format: ADME, organism-based; design: dose 50 mg/kg, route intraperitoneal; conditions: in vivo
# [18] = Tmax in BALB/c mouse at 50 mg/kg, ip; format: ADME, organism-based; conditions: in vivo
# [19] = AUC (0 to 24 hrs) in BALB/c mouse at 50 mg/kg, ip measured up to 24 hrs; format: ADME, organism-based; design: time < 24 hr, dose 50 mg/kg, route intraperitoneal; conditions: in vivo
# [20] = Half life in BALB/c mouse at 50 mg/kg, ip; format: ADME, organism-based; conditions: in vivo
# [21] = Plasma concentration in BALB/c mouse at 50 mg/kg, ip measured at 24 hrs post dose; format: ADME, organism-based
# Mus musculus [22] = assay: Antiatherosclerotic in C57BL/6 mouse assessed as increase in HDL-cholesterol level in plasma at 50 mg/kg, ip qd administrated for 2 days and measured 6 hrs post last dose by FPLC analysis; format: functional, organism-based
# [23] = Tmin in BALB/c mouse at 50 mg/kg, ip; format: ADME, organism-based; conditions: in vivo
# [24] = Ratio of Cmin in BALB/c mouse to IC50 for endothelial lipase in human serum; format: ADME; conditions: in vivo
# Sequence of Cytochrome P450 2D6 (P10635 whole entry): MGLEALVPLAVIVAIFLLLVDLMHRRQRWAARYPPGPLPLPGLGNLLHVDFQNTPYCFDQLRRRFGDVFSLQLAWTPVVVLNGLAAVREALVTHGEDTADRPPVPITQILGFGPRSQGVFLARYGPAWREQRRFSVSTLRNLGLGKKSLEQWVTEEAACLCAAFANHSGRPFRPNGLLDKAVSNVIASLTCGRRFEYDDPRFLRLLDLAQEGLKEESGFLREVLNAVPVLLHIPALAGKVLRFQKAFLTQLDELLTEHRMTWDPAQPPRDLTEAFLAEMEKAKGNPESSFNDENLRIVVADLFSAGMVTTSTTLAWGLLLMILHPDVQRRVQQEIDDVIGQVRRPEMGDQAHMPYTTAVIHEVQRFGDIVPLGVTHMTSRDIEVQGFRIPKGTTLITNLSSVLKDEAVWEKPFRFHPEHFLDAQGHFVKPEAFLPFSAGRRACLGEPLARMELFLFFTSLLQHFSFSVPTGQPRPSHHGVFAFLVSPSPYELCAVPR
# Sequence of Cytochrome P450 2C19 (P33261 whole entry): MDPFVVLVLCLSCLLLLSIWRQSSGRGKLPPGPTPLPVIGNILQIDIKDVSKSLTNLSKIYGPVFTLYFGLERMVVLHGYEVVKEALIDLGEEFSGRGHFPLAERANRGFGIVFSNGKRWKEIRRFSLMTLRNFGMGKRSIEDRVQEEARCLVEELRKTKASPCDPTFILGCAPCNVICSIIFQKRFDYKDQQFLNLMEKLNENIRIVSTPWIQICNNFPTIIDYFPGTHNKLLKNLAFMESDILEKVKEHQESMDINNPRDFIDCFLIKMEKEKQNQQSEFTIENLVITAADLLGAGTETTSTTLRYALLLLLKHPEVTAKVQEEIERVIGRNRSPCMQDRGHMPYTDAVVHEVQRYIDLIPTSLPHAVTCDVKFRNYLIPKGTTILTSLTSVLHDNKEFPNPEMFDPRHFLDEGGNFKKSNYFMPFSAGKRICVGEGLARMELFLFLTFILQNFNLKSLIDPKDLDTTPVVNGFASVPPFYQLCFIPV
# Sequence of Cytochrome P450 2C9 (P11712 whole entry): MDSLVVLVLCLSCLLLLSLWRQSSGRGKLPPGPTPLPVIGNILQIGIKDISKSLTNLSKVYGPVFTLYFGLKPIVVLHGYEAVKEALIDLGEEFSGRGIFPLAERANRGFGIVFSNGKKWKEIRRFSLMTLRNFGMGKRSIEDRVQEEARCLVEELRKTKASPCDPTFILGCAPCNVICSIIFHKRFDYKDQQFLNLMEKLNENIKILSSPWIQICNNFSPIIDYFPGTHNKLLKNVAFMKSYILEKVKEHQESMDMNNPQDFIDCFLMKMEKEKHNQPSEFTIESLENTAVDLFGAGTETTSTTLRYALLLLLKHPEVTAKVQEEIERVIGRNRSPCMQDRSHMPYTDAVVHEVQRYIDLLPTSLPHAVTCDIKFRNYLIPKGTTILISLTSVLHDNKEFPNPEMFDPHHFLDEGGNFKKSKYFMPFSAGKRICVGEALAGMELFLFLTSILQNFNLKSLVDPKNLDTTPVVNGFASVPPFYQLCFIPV
# Sequence of Cytochrome P450 3A4 (P08684 whole entry): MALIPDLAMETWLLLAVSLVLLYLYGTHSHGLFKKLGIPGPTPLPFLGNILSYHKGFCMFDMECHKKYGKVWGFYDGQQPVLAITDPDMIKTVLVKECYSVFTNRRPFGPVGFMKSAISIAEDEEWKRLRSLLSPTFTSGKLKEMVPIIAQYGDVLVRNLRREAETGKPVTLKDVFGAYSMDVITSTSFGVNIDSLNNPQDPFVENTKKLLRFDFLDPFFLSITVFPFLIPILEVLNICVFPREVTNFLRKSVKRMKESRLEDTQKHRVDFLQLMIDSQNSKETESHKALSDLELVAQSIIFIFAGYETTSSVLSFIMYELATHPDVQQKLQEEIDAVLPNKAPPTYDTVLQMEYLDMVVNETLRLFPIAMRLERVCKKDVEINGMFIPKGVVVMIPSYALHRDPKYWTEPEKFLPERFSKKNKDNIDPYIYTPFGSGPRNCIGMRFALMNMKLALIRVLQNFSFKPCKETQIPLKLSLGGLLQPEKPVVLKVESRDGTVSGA
SMILES,IC50 (Endothelial lipase [1]) [nM],IC50 [2] [nM],IC50 (Endothelial lipase [3]) [nM],IC50 (Cytochrome P450 2C9) [nM],IC50 (Cytochrome P450 2C19) [nM],IC50 (Cytochrome P450 1A2) [nM],IC50 (Cytochrome P450 2D6) [nM],IC50 (Cytochrome P450 3A4) [nM],"remaining at 10 min, 0.5 µM [4] [%]","remaining at 10 min, 0.5 µM [5] [%]",Papp [6] [×10⁻⁶ cm/s],Papp [7] [×10⁻⁶ cm/s],Papp A→B [8] [×10⁻⁶ cm/s],Papp B→A [9] [×10⁻⁶ cm/s],further results
N#CC(C(=O)NCC(=O)NC1CC1)c1nc2ccc(-c3ccc4c(c3)C(=O)NC4)cc2s1 (racemic),130,420,,,,,,,,,,,,,
CN(C)C(=O)c1ccc(-c2ccc3nc(C(C#N)C(=O)NCC(=O)NC4CC4)sc3c2)cc1F (racemic),70,1100,,,,,,,,,,,,,
N#CC(C(=O)NCC(=O)NC1CC1)c1nc2ccc(-c3ccc(NC(=O)OCc4ccccc4)cc3)cc2s1 (racemic),80,0.8,1,,,,,,,,,,,,
N#CC(C(=O)NCC(=O)NC1COC1)c1nc2ccc(-c3ccc(F)nc3)cc2s1 (racemic),50,190,,> 18000,> 18000,> 18000,> 18000,> 18000,87,87,0.4,6.5,< 1.5,34.9,
CN1CCN(C(=O)c2ccc(-c3ccc4nc(C(C#N)C(=O)NCC(=O)NC5CCC5)sc4c3)cc2)CC1 (racemic),200,490,3100,,,,,,,,,,,,
N#CC(C(=O)NCC(=O)NC1CC1)c1nc2ccc(-c3ccc(C(=O)N4CCOCC4)cc3)cc2s1 (racemic),50,300,,> 18000,> 18000,> 18000,> 18000,> 18000,98,100,0.4,10.4,1.7,18.4,
CN(C)C(=O)c1cccc(-c2ccc3nc(C(C#N)C(=O)NCC(=O)NC4CC4)sc3c2)c1 (racemic),30,720,,> 18000,> 18000,> 18000,> 18000,> 18000,76,99,0.3,8.4,< 1.5,7.5,
N#CC(C(=O)NCC(=O)N1CCCC1)c1nc2ccc(-c3ccccc3)cc2s1 (racemic),1100,250,1300,,,,,,,,,,,,
N#CC(C(=O)NCC(=O)NC1CC1)c1nc2ccc(-c3ccccc3)cc2s1 (racemic),51,5.4,,> 18000,> 18000,> 18000,> 18000,> 18000,91,86,84.5,162,2,24.6,Activity (Mus musculus [10]): inactive; Activity [11]: 88%; Cmax [12]: 6.6 µM; Tmax [13]: 0.25 h; AUC(0-t) at 24 h [14]: 18 µM·h; half-life [15]: 8.5 h; concentration at 24 h [16]: 0.14 µM; Cmax [17]: 28 µM; Tmax [18]: 7 h; AUC(0-t) at 24 h [19]: 330 µM·h; half-life [20]: 4.7 h; concentration at 24 h [21]: 1.66 µM; Activity (Mus musculus [22]): inactive; Tmin [23]: 23.8 h; Ratio [24]: > 30
N#CC(C(=O)NCC(=O)NC1CC1)c1nc2ccc(-c3ccc(F)nc3)cc2s1 (racemic),230,500,170,,,,,,,,,,,,
N#CC(C(=O)NCC(=O)NC1CC1)c1nc2ccc(-c3cccc(C(=O)N4CCCCC4)c3)cc2s1 (racemic),140,35,,,,,,,,,,,,,
N#CC(C(=O)NCC(=O)NC1CC1)c1nc2ccc(-c3ccc(C(=O)N4CCC4)cc3)cc2s1 (racemic),170,170,,,,,,,,,,,,,
N#CC(C(=O)NCC(=O)NC1CC1)c1nc2ccc(-c3ccc4c(c3)CNC4=O)cc2s1 (racemic),100,70,5.3,,,,,,,,,,,,
CN1CCN(C(=O)c2ccc(-c3ccc4nc(C(C#N)C(=O)NCC(=O)NC5CC5)sc4c3)cc2)CC1 (racemic),30,1800,,> 18000,> 18000,> 18000,> 18000,> 18000,78,91,0.3,0.2,< 1.5,3,
